Where two headings read alike, the source gives them in different places.
Assays:
[1] = PK sub-study of IV iloprost infusion (plasma, LC-MS); format: in vivo, human; details: for AUC(0-t) / AUC(0-inf) / Vd / half-life: human, plasma; for AUC(0-t): read-out: AUC0-last, Geometric mean (geometric CV %); for AUC(0-inf): read-out: AUC0-inf, Geometric mean (geometric CV %); for Vd: read-out: Vss, Mean (SD)
Method: Eligible subjects were given the option to participate in a PK sub-study. Subjects who participated in the sub-study provided plasma samples for PK analysis. The samples were analyzed for iloprost concentrations using validated liquid chromatography mass spectrometry methods.
The following PK parameters were calculated whenever possible, based on the plasma concentrations of iloprost: • Steady state plasma concentration just before infusion was stopped • Area under the plasma concentration versus time curve (AUC) from time of dosing to the last time point with measurable concentration (AUC0-last) • AUC from time 0 extrapolated to infinity (AUC0-inf) • Percentage of AUC obtained by extrapolation (AUCextrap%) • Terminal elimination constant (λz) • Plasma terminal elimination half-life (t1/2) • Plasma clearance (CL), calculated as dose/AUC0-inf • Volume of distribution (V), calculated as dose/(λz×AUC0-inf)

[2] = Safety and tolerability in the IV iloprost study (adverse events, vital signs, ECG, laboratory); format: in vivo, human
Method: On Day 1, study drug was initiated at a starting dose of 0.5 ng/kg/min, and dose increases occurred every 30 minutes (±5 minutes) in increments of 0.5 ng/kg/min up to 2.0 ng/kg/min or the individual tolerated dose. If dose-limiting adverse events (e.g., headache, flushing, jaw pain, myalgia, nausea, or vomiting) occurred that could not be tolerated by the subject, or if the subject experienced symptomatic hypotension, then the dose was reduced in a step-wise manner by 0.5 ng/kg/min every 30 minutes (±5 minutes) until a tolerated dose was determined or the infusion was stopped until the symptoms resolved at which point the study drug was reinitiated at a previously tolerated dose. If symptomatic hypotension or a dose-limiting adverse event occurred during administration of iloprost at the starting dose (i.e., 0.5 ng/kg/min), the infusion was reduced to 0.25 ng/kg/min. If the dose of 0.25 ng/kg/min was not tolerated due to symptomatic hypotension or if a dose-limiting adverse event occurred, the study drug was discontinued, and re-initiation of the infusion could have been attempted after the event had resolved or had been treated. Blood pressure and heart rate were monitored 15 minutes (±5 minutes) prior to and after all dose changes. The maximum tolerated dose was maintained for the remaining 6-hour daily period. At the end of the 6-hour infusion period, the dose was stopped. Subjects were to be monitored for up to 1 hour after completion of study drug infusion (i.e., vital signs were obtained 15 minutes [+5 minutes] and 1 hour [+15 minutes] after completion of the infusion).
Safety parameters included adverse events, physical examination findings, vital sign measurements (heart rate and blood pressure), 12-lead electrocardiogram (ECG) findings, and standard clinical laboratory measurements (chemistry and hematology).

[3] = Heat exposure study (sterilization cycles); format: physicochemical; details: pH about 8.0-8.1 versus about 7.0-7.2; light and heat exposure studies
Method: Approximately 200 mL of the prepared formulation was filtered through a Millipak 200, 0.22μ filter for light exposure study and heat exposure study (100 mL for each study).
Heat Exposure Study: Approximately 1.1 mL of formulation was placed each into 40 clean 2 cc vials and the vials were capped with 13 mm caps. One set of 20 vials were wrapped with autoclave tape, placed into an autoclave bag and labeled as B1. Another set of 20 vials were wrapped with autoclave tape, placed into an autoclave bag and labeled as B2. All vials were exposed through one sterilization cycle at 121° C. for approximately 30 minutes, then B1 vials were analyzed for pH and assayed by HPLC. The B2 vials were then exposed to a second sterilization cycle at ≥121° C. for ≥15 minutes. The B2 vials were analyzed for pH and assayed by HPLC for iloprost and impurities.

[4] = cited from earlier work
[5] = 1.5 ng/kg, maximum tolerated dose level 1.50 ng/kg/min IV, n = 1
[6] = maximum tolerated dose level 1.00 ng/kg/min IV, n = 1
[7] = maximum tolerated dose level 1.00 ng/kg/min IV, n = 2
[8] = maximum tolerated dose level 2.00 ng/kg/min IV, n = 1
[9] = maximum tolerated dose level 2.00 ng/kg/min IV, n = 4

## CC#CCC(C)[C@H](O)/C=C/[C@@H]1[C@H]2C/C(=C/CCCC(=O)O)C[C@H]2C[C@H]1O (stereo partly drawn) [Iloprost, (5E)-5-[(3aS,4R,5R,6aS)-5-hydroxy-4-[(E,3S)-3-hydroxy-4-methyloct-1-en-6-ynyl]-3,3a,4,5,6,6a-hexahydro-1H-pentalen-2-ylidene]pentanoic acid]
[1]; 0.50 to 2.00 ng/kg/min, exception Css and AUC0-last at 1.50 ng/kg/min
  geometric mean of Css, AUC0-last and AUC0-inf versus dose: increased as dose increased
[1]; 0.5 ng/kg, maximum tolerated dose level 0.50 ng/kg/min IV, n = 1
  AUC(0-t): 0.116 ng·h/mL
[1]; [5]
  AUC(0-inf): 0.603 ng·h/mL
  Vd: 49.3 L
[1]; 1.5 ng/kg, maximum tolerated dose level 1.50 ng/kg/min IV, n = 1, read-out: t1/2, Mean (SD) (converted)
  half-life: 27 min
[1]; 1.5 ng/kg, maximum tolerated dose level 1.50 ng/kg/min IV, n = 2
  AUC(0-t): 0.203 ng·h/mL
[1]; intravenous, range across the 4 dose levels, read-out: mean t½
  half-life: 22.9 to 28.3 min
[1]; [6]
  AUC(0-inf): 0.379 ng·h/mL
  Vd: 62 L
  CLss, Mean (SD): 91.22 (NA) L/h
[1]; maximum tolerated dose level 1.00 ng/kg/min IV, n = 1, read-out: t1/2, Mean (SD) (converted)
  half-life: 24.6 min
[1]; [7]
  AUC(0-t): 0.315 ng·h/mL
  Css, Geometric mean (geometric CV %): 51.31 (20.7) pg/mL
[1]; [8]
  AUC(0-inf): 0.701 ng·h/mL
  Vd: 35.5 L
  CLss, Mean (SD): 64.53 (NA) L/h
[1]; maximum tolerated dose level 2.00 ng/kg/min IV, n = 1, read-out: t1/2, Mean (SD) (converted)
  half-life: 22.9 min
[1]; [9]
  AUC(0-t): 0.478 ng·h/mL
  Css, Geometric mean (geometric CV %): 76.82 (56.9) pg/mL
[1]; maximum tolerated dose level 0.50 ng/kg/min IV, n = 1
  Css, Geometric mean (geometric CV %): 19.60 (NA) pg/mL
[1]; maximum tolerated dose level 1.50 ng/kg/min IV, n = 1
  CLss, Mean (SD): 6.01 (NA) L/h
[1]; maximum tolerated dose level 1.50 ng/kg/min IV, n = 2
  Css, Geometric mean (geometric CV %): 32.90 (284.8) pg/mL
[2]; human, in vivo
  TEAE abdominal pain, n [%]: 4 [23.5%] subjects
  TEAE flushing, n [%]: 5 [29.4%] subjects
  TEAE headache, n [%]: 16 [94.1%] subjects
  TEAE nausea, n [%]: 11 [64.7%] subjects
  subjects who experienced a TEAE, n (%): 17 (100.0%) subjects
  subjects with TEAEs considered severe by the Investigator, n (%): Two (11.8%) subjects
[2]; in vivo
  bradycardia or tachycardia: no bradycardia or tachycardia reported
  changes in chemistry or hematology laboratory values: no clinically significant changes
  hypertensive or hypotensive events: no hypertensive or hypotensive events reported
[2]; whole study
  SAE, AESI, TEAE leading to discontinuation of study drug, or TEAE leading to death: No subjects experienced
[3]
  stability of iloprost versus pH: more stable at higher pH of about 8.0-8.1
[4]; 1 ng/kg/min for 45 minutes
  non-compartmental clearance: 21 mL/min/kg
[4]; 2 ng/kg/min for 4 hours
  non-compartmental clearance: 24 mL/min/kg
[4]; 3 ng/kg/min for 45 minutes
  non-compartmental clearance: 20.6 mL/min/kg

— patent publication US20240299414A1, “SUBCUTANEOUS OR INTRAMUSCULAR INJECTION FORMULATIONS OF ILOPROST” (EICOS SCIENCES, INC., priority 2020, published 2024)
